Molecular target: Platelet-activating factor receptor (Oryctolagus cuniculus)
Assay: […] was measured as the IC50 for aggregation of washed rabbit platelets after incubation for 30 min at 37 C.

IC50 [µM] | SMILES
> 200 | CCCCCCCCCCCC(CCCCCC)CCCCCCOCC(COP(=O)([O-])OCC[N+](C)(C)C)OC (centres undefined) [2-methoxy-3-(7-hexyloctadecyloxy)propyl-2-trimethylammonioethylphosphorate]
> 200 | CCCCCCCCCCCCCCCCC(=O)COCC(COP(=O)([O-])OCC[N+](C)(C)C)OC (centres undefined) [2-methoxy-3-(2-oxooctadecyloxy)propyl-2-trimethylammonioethylphosphorate]
> 200 | COC(COCCCCCCCCCCC(=O)c1ccccc1)COP(=O)([O-])OCC[N+](C)(C)C (centres undefined) [2-methoxy-3-(11-oxo-11-phenylundecyloxy)propyl-2-trimethylammonioethylphosphorate]
> 200 | CCCCCCCCC(CCCCCCOCC(COP(=O)([O-])OCC[N+](C)(C)C)OC)c1ccccc1 (centres undefined) [2-methoxy-3-(7-phenylpentadecyloxy)propyl-2-trimethylammonioethylphosphorate]
> 200 | CCCCCCCCCCCC(C)CCCCCCOCC(COP(=O)([O-])OCC[N+](C)(C)C)OC (centres undefined) [2-methoxy-3-(7-methyloctadecyloxy)propyl-2-trimethylammonioethylphosphorate]
1.5 | CCCCCCC(CCCCCC)CCCCCCCCCCCOCC(COP(=O)([O-])OCC[N+](C)(C)C)OC (centres undefined) [3-(12-hexyloctadecyloxy)-2-methoxypropyl-2-trimethylammonioethylphosphorate]
20 | COC(COCCCCCCCCCCCCCCCCc1ccccc1)COP(=O)([O-])OCC[N+](C)(C)C (centres undefined) [2-methoxy-3-(16-phenylhexadecyloxy)propyl-2-trimethylammonioethylphosphorate]
> 200 | CCCCCCCCCCCC(=O)CCCCCCOCC(COCCCCC[N+](C)(C)C)OC (centres undefined) [{5-[2-Methoxy-3-(7-oxo-octadecyloxy)-propoxy]-pentyl}-trimethyl-ammonium; bromide]
> 200 | COC(COCCCCCCCCCCC(O)c1ccccc1)COP(=O)([O-])OCC[N+](C)(C)C (centres undefined) [3-(11-hydroxy-11-phenylundecyloxy)-2-methoxypropyl-2-trimethylammonioethylphosphorate]

— BindingDB's records for doi:10.1021/jm00007a018 (Laboratorios Menarini, 1995)
